Results published in patent US7504243B2, “Methods for the production of biliverdin” (The United States of America as represented by the …, priority 2004, dated 2009).

Test system: CaHMX1 promoter
Assay: Renilla luciferase reporter driven by the CaHMX1 promoter in knock-in strain CAMP Ki-29
Format: cell-based, Candida albicans
Conditions: for Luciferase Activity: strain Ki-29, iron-replete medium, 30° C., 15 min, 1 mg/ml protein, mean±S.D. of two experiments, light units per 5×10^7 cells/assay point
Text: and cloning into pCR-BluntII TOPO (Invitrogen). The inserted fragment is then excised with SstI and PstI and cloned into plasmid pCRW3 (Srikantha, T. et al. (1996) “THE SEA PANSY RENILLA RENIFORMIS LUCIFERASE SERVES AS A SENSITIVE BIOLUMINESCENT REPORTER FOR DIFFERENTIAL GENE EXPRESSION IN CANDIDA ALBICANS,” J. Bacteriol. 178:121-129) using similar sites resulting in plasmid pPt14. This plasmid was linearized at the unique KpnI site in the CaHMX1 promoter (see, FIG. 2, Panel D) to enable recombination into the CaHMX1 genomic site in the C. albicans strain Red 3/6 (Srikantha, T. et al. (1996) “THE SEA PANSY RENILLA RENIFORMIS LUCIFERASE SERVES AS A SENSITIVE BIOLUMINESCENT REPORTER FOR DIFFERENTIAL GENE EXPRESSION IN CANDIDA ALBICANS,” J. Bacteriol. 178:121-129). […] This knock-in procedure is desirable because the reporter plasmid pPt14 is not functional when integrated into the Ade2 locus when introduced as an episome. The resulting strain, CAMP Ki-29, is used for all reporter assays discussed herein. The correct insertion sites of the preceding constructs in the genomes of strains CAMP 50 and CAMP Ki-29 are verified by Southern blotting.
Luciferase Assays—Reporter assays use C. albicans cells that are grown at 30° C. in minimal YNB medium with ammonium sulfate and 2% glucose. 5×10^7 cells were harvested, cell extracts were obtained by glass bead lysis (Srikantha, T. et al. (1996) “THE SEA PANSY RENILLA RENIFORMIS LUCIFERASE SERVES AS A SENSITIVE BIOLUMINESCENT REPORTER FOR DIFFERENTIAL GENE EXPRESSION IN CANDIDA ALBICANS,” J. Bacteriol. 178:121-129), and luminescence is determined using coelenterazine as a substrate (Promega). Luciferase activity is defined as the number of light units using 5×10^7 cells/assay point in 200 μl of lysis buffer using a 5-μl volume for light measurement. To assess regulation of the promoter by iron, the ferrous iron chelator ferrozine is added to cell cultures in the presence of FAS to buffer iron concentrations as described (Philpott, C. C. et al. (1998) “CELL-CYCLE ARREST AND INHIBITION OF G1 CYCLIN TRANSLATION BY IRON IN AFT1-1^UP YEAST,” EMBO J. 17, 5026-5036) (see also, Chaney, R. L. (1988) “PLANTS CAN UTILIZE IRON FROM IRON-N,N′-DI-2 HYDROXYBENZOYLETHYLENEDIAMINE-N,N′-DIACETIC ACID, A FERRIC CHELATE WITH 1,000,000 GREATER FORMATION CONSTANT THAN IRON-EDDHA,” J. Plant Nutr. 11, 1033-1050). FAS added to 1 mM ferrozine at 10, 100, and 400 μM represents low, optimal, and high levels of iron, respectively.
To ensure that this induction is specific for Hb, several control proteins are tested for their ability to stimulate luciferase activity in strain Ki-29 (Table 1). […] Therefore, the iron in Hb is not essential for activity, but the native conformation of globin induced by porphyrin binding is required.

With “Apo-transferrin: control protein from Sigma” the “Luciferase Activity” value was 64.4 ± 11.8.
In the case of Casein, the “Luciferase Activity” value is reported as 38.6 ± 8.1.
In the case of “CoPPIX-globin: The cobalt analog of Hb; cobalt protoporphyrin IX substituted for the heme in globin”, the “Luciferase Activity” value is reported as 161.7 ± 24.
With Fetuin: control protein from Sigma the “Luciferase Activity” value was 59.3 ± 5.9.
For “Holo-transferrin: ferroprotein transferrin, control protein from Sigma”, the “Luciferase Activity” value was 20.7 ± 0.55.
In the case of hemin [reference compound], the “increase in activity over the iron-replete control when hemin is added to Hb combined with ferrozine” value (24 h, Hb 25 μM + ferrozine 100 μM + hemin 25 μM) is reported as 2.5 fold, the “increase of CaHMX1 promoter activity by hemin after 24 h” value (CAMP Ki-29 cells, hemin 25 μM, 24 h) is reported as “about 2 fold” and the “lag time before induction of promoter activity” value (iron-deficient medium, 25 μM hemin, extended time course) is reported as 3 h.
